This note sets out measurements from patent US5824540A, “Pseudomonas putida strain with dioxygenase activity” (Merck & Co., Inc., priority 1996, dated 1998).

The assay relates to P. putida F1. The assay is described as follows: Growth of P. putida F1 test tube cultures in MMC medium with ICR 191 (mutation procedure 1). Format: cell-based, Pseudomonas putida. The following applies: 16 to 18 hour incubation, 30° C., dark. The method, then: In procedure 1, cells were grown overnight in TSB at 30° C. and diluted 10^-4 with phosphate buffer (100 mM, pH 7.2). Several 18×150 mm test tubes containing 3 ml of MMC medium plus 0 (control), 10, 20, 30, 40, 50, 75, or 100 mg/l ICR 191 were inoculated with 0.1 ml of the diluted inoculum. Test tube cultures were incubated in the dark at 30° C. with 220 RPM agitation. […] The cells from 20 mg/l ICR 191 culture were harvested by centrifugation, washed twice with phosphate buffer.

For `COc1ccc2nc3cc(Cl)ccc3c(NCCCNCCCl)c2c1` [ICR 191], the effect on growth result (10 mg/l ICR 191) is “no detectable effect on growth”. The “level of growth relative to control” value (20 mg/l ICR 191) is on record as “approximately half that of the control”. For the same compound, the growth of culture entry is “a trace of growth” (30 mg/l ICR 191) and “completely inhibited growth” (ICR 191 concentrations above 30 mg/l).
